# “And” between values parts separate entries of the source, which are not always exact repeats. Equal entries are not always repeated.
# How the values were obtained:
# MMP13 = MMP13 (Homo sapiens, UniProt P45452); experiment: Activity of purified MMP on substrate (reporter release); assay type: biochemical; conditions: 30 μM substrate; MMP Conc. 1.2 nM; AZAP0.5 mg/ml
# Source text: (§1) In order to confirm the specificity of the substrates for various MMPs, standard enzymatic assays were adapted to monitor the release of reporter. The reporter was either analysed by a LC-MS method as described in Example 3a, or by a LC-UV method as described in Example 4.
# (§2) A protocol for testing against other matrix metalloproteinases, including MMP9, using expressed and purified pro MMP is described, for instance, by C. Graham Knight et al., (1992) FEBS Lett., 296(3), 263-266.
# MMP16 = MMP16 (Homo sapiens, UniProt P51512); experiment: as above; assay type: biochemical; conditions: 30 μM substrate; MMP Conc. 4.3 nM; Calbiochem #475939
# MMP16, sequence (P51512 120-607): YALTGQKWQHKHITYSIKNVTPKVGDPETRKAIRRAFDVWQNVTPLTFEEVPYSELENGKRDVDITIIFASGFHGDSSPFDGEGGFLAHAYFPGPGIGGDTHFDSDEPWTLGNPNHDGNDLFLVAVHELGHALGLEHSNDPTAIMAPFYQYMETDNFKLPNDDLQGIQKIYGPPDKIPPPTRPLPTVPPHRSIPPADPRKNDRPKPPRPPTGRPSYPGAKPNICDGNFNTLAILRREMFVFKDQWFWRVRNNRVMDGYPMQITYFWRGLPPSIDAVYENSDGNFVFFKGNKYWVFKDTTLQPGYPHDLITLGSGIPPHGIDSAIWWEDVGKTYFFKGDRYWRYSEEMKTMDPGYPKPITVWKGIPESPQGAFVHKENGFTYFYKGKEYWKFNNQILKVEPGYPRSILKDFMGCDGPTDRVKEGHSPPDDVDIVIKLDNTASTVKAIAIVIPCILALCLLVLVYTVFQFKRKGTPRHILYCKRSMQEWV
# Source text: as §1, §2
# MMP9 = MMP9 activity in whole blood via 4-nitroaniline in plasma after zymosan stimulation (LC-MS); assay type: biochemical, human; conditions: for 4-nitroaniline concentration, Mean: group mean; for 4-nitroaniline concentration: individual subjects, substrate 10 μM in plasma, 37° C., 60 min
# Description: Samples of heparinised whole blood (1 mL) were stimulated with Zymosan (0, 50, 300, 600, 900 and 1200 μg/mL), vortexed or and incubated at 37° C. for 15 minutes. Plasma was collected after centrifugation, mixed with the substrate (10 μM) and incubated at 37° C. for 60 minutes. Methanol (300 μL), with (^13C)6-4-nitroaniline (1 μM) as internal standard, was added to a 100 μL aliquot of the above mixture and centrifuged to remove precipitated proteins. The supernatant (100 μL) was diluted with water (100 μL) and the extracts was injected directly onto a HPLC column.
# Thaw, as required, pooled control human plasma, quality control and test samples. Add methyl 1-acetyl-L-prolyl-L-leucylglycyl-α-R-(4-nitrophenylamino)-glycyl-L-leucyl-β-alaninate (2 μL, solution D) to test plasma sample (200 μL) in 2 mL screw cap microtubes and mix on a vortex mixer.
# Incubate tubes for 60 minutes at 37° C. in a shaking water bath. Prepare the calibration samples in plasma as detailed in Table 1 during the 60 minute incubation of test samples in step 3. Mix the samples on a vortex mixer.
# Manually dispense aliquots (100 μL) of each plasma sample into separate wells of a 96 deep-well 2 mL plate using an appropriate pipette. (Note: start pipetting calibration, quality control and blank samples approximately 10 minutes before the test samples have finished their incubation in step 3). Dispense internal standard in methanol (300 μL) into each well using the Tecan. Cover the plate with polystyrene cover. Centrifuge at 3000 rpm for 5 minutes at room temperature.
# Transfer an aliquot (100 μL) of the sample supernatant into separate wells of a 96 deep-well 2 mL plate using the Tecan. Mix water (100 μL) with each sample in the wells of a 96 deep-well polypropylene plate using the Tecan. Cover plate with pre-spilt 96 well seal.
# Analyse 10 μL aliquots by LC/MS.
# Whole blood samples were stimulated with varying concentrations of zymosan (0, 50, 300, 600, 900 and 1200 μg/mL). Plasma sample obtained from the stimulated whole blood samples were mixed with the substrate methyl 1-acetyl-L-prolyl-L-leucylglycyl-α-R-(4-nitrophenylamino)-glycyl-L-leucyl-β-alaninate at a plasma concentration of 10 μM and the samples were then incubated at 37° C. for 60 minutes. Aliquots (100 μL) of the human plasma were mixed with methanol (300 μL) containing [^13C]6-4-nitroaniline as an internal standard to precipitate the proteins and the sample was centrifuged and supernatants (100 μL) were mixed with water (100 μL). The extracts 10 μL were injected directly onto a Phenomenex Luna phenyl-hexyl column (50×2.0 mm, 5 μm) and the compounds eluted with a gradient mobile phase consisting of 0.01% ammonia/methanol. 4-nitroaniline was resolved from endogenous plasma constituents and the HPLC effluent was directed into the mass spectrometer via a heated nebuliser interface in negative mode. 4-nitroaniline and [^13C]6-4-nitroaniline were detected using single ion monitoring of the [M-H]^− ions at the mass to charge ratio of m/z 137 and 143 respectively. The method is described above.
# The method is validated over the range 0.0500 to 10.0 μM for 4-nitroaniline based on the analysis of a 100 μL plasma sample. Quality control samples at concentrations of 0.100, 2.00 and 8.00 μM 4-nitroaniline were included to determine the acceptability of each analysis batch. The limit of quantification (LOQ) of the method is 0.0500 μM 4-nitroaniline for a 100 μL aliquot of plasma.
# [1] = healthy volunteers, visit 3, zymosan 0 μg
# [2] = healthy volunteers, visit 3, zymosan 50 μg
# [3] = healthy volunteers, visit 3, zymosan 300 μg
# [4] = healthy volunteers, visit 3, zymosan 600 μg
# [5] = healthy volunteers, visit 3, zymosan 900 μg
# [6] = healthy volunteers, visit 3, zymosan 1200 μg
# [7] = healthy volunteers, visit 4, zymosan 0 μg
# [8] = healthy volunteers, visit 4, zymosan 50 μg
# [9] = healthy volunteers, visit 4, zymosan 300 μg
# [10] = healthy volunteers, visit 4, zymosan 600 μg
# [11] = healthy volunteers, visit 4, zymosan 900 μg
# [12] = healthy volunteers, visit 4, zymosan 1200 μg
structure (smiles),measurement,setting,value
"COC(=O)CCNC(=O)[C@H](CC(C)C)NC(=O)[C@@H](NC(=O)CNC(=O)[C@H](CC(C)C)NC(=O)[C@@H]1CCCN1C(C)=O)Nc1ccc([N+](=O)[O-])cc1 [Example 1.1, Methyl 1-acetyl-L-prolyl-L-leucylglycyl-α-R-(4-nitrophenylamino)-glycyl-L-leucyl-β-alaninate]",Activity,MMP13,1.9 units/s
same,Activity,MMP16,1.4 units/s
same,"4-nitroaniline concentration, Mean","MMP9; COPD patients, visit 3, zymosan 0 μg",0.128 µM
same,"4-nitroaniline concentration, Mean","MMP9; COPD patients, visit 3, zymosan 50 μg",1.58 µM
same,"4-nitroaniline concentration, Mean","MMP9; COPD patients, visit 3, zymosan 300 μg",3.56 µM
same,"4-nitroaniline concentration, Mean","MMP9; COPD patients, visit 3, zymosan 600 μg",4.33 µM
same,"4-nitroaniline concentration, Mean","MMP9; COPD patients, visit 3, zymosan 900 μg",4.77 µM
same,"4-nitroaniline concentration, Mean","MMP9; COPD patients, visit 3, zymosan 1200 μg",4.68 µM
same,"4-nitroaniline concentration, Mean","MMP9; COPD patients, visit 4, zymosan 0 μg",0.141 µM
same,"4-nitroaniline concentration, Mean","MMP9; COPD patients, visit 4, zymosan 50 μg",1.51 µM
same,"4-nitroaniline concentration, Mean","MMP9; COPD patients, visit 4, zymosan 300 μg",3.31 µM
same,"4-nitroaniline concentration, Mean","MMP9; COPD patients, visit 4, zymosan 600 μg",4.03 µM
same,"4-nitroaniline concentration, Mean","MMP9; COPD patients, visit 4, zymosan 900 μg",4.41 µM
same,"4-nitroaniline concentration, Mean","MMP9; COPD patients, visit 4, zymosan 1200 μg",4.54 µM
same,"4-nitroaniline concentration, Mean",MMP9; [1],0.121 µM
same,4-nitroaniline concentration,MMP9; [1],0.145 μM (2×) and 0.132 μM and 0.126 μM and 0.0917 μM and 0.124 μM and 0.104 μM and 0.0963 μM and 0.118 μM and 0.123 μM
same,"4-nitroaniline concentration, Mean",MMP9; [2],1.22 µM
same,4-nitroaniline concentration,MMP9; [2],1.13 μM (2×) and 1.82 μM and 2.10 μM and 1.52 μM and 0.988 μM and 0.836 μM and 0.878 μM and 0.646 μM and 1.16 μM
same,"4-nitroaniline concentration, Mean",MMP9; [3],2.82 µM
same,4-nitroaniline concentration,MMP9; [3],2.48 µM and 3.68 µM and 2.65 µM and 4.32 µM and 3.63 µM and 2.82 µM and 2.31 µM and 2.42 µM and 1.56 µM and 2.28 µM
same,"4-nitroaniline concentration, Mean",MMP9; [4],3.36 µM
same,4-nitroaniline concentration,MMP9; [4],3.00 µM and 4.26 µM and 2.98 µM and 4.39 µM and 4.23 µM and 3.90 µM and 3.08 µM and 2.99 µM and 1.84 µM and 2.95 µM
same,"4-nitroaniline concentration, Mean",MMP9; [5],3.52 µM
same,4-nitroaniline concentration,MMP9; [5],3.05 µM and 4.50 µM and 3.14 µM and 4.38 µM and 4.24 µM and 3.98 µM and 3.45 µM and 3.35 µM and 2.07 µM and 2.99 µM
same,"4-nitroaniline concentration, Mean",MMP9; [6],3.59 µM
same,4-nitroaniline concentration,MMP9; [6],3.07 µM and 4.53 µM and 2.99 µM and 4.28 µM and 4.45 µM and 4.41 µM and 3.53 µM and 3.50 µM and 2.14 µM and 3.02 µM
same,"4-nitroaniline concentration, Mean",MMP9; [7],0.131 µM
same,4-nitroaniline concentration,MMP9; [7],0.154 µM and 0.192 µM and 0.106 µM and 0.0977 µM and 0.130 µM and 0.199 µM and 0.0803 µM
same,"4-nitroaniline concentration, Mean",MMP9; [8],0.986 µM
same,4-nitroaniline concentration,MMP9; [8],1.49 µM and 2.11 µM and 0.808 µM and 0.616 µM and 0.732 µM and 0.795 µM and 0.758 µM
same,"4-nitroaniline concentration, Mean",MMP9; [9],2.39 µM
same,4-nitroaniline concentration,MMP9; [9],2.81 µM and 4.29 µM and 1.92 µM and 1.68 µM and 1.98 µM and 2.29 µM and 2.22 µM
same,"4-nitroaniline concentration, Mean",MMP9; [10],2.84 µM
same,4-nitroaniline concentration,MMP9; [10],3.17 µM and 4.36 µM and 2.39 µM and 2.12 µM and 2.41 µM and 3.36 µM
same,"4-nitroaniline concentration, Mean",MMP9; [11],3.26 µM
same,4-nitroaniline concentration,MMP9; [11],3.27 μM and 5.53 μM and 2.69 μM and 2.46 μM and 3.03 μM and 3.48 μM (2×)
same,"4-nitroaniline concentration, Mean",MMP9; [12],3.39 µM
same,4-nitroaniline concentration,MMP9; [12],3.32 µM and 5.28 µM and 2.84 µM and 2.85 µM and 3.15 µM and 4.00 µM
same,"4-nitroaniline concentration, Mean","MMP9; smokers, visit 3, zymosan 0 μg",0.149 µM
same,"4-nitroaniline concentration, Mean","MMP9; smokers, visit 3, zymosan 50 μg",1.45 µM
same,"4-nitroaniline concentration, Mean","MMP9; smokers, visit 3, zymosan 300 μg",3.35 µM
same,"4-nitroaniline concentration, Mean","MMP9; smokers, visit 3, zymosan 600 μg",4.10 µM
same,"4-nitroaniline concentration, Mean","MMP9; smokers, visit 3, zymosan 900 μg",4.45 µM
same,"4-nitroaniline concentration, Mean","MMP9; smokers, visit 3, zymosan 1200 μg",4.47 µM
same,"4-nitroaniline concentration, Mean","MMP9; smokers, visit 4, zymosan 0 μg",0.142 µM
same,"4-nitroaniline concentration, Mean","MMP9; smokers, visit 4, zymosan 50 μg",1.66 µM
same,"4-nitroaniline concentration, Mean","MMP9; smokers, visit 4, zymosan 300 μg",3.32 µM
same,"4-nitroaniline concentration, Mean","MMP9; smokers, visit 4, zymosan 600 μg",3.76 µM
same,"4-nitroaniline concentration, Mean","MMP9; smokers, visit 4, zymosan 900 μg",4.19 µM
same,"4-nitroaniline concentration, Mean","MMP9; smokers, visit 4, zymosan 1200 μg",4.41 µM
